Numbers after ± are expanded uncertainties.
Assay: mn = molality of the nth substance listed, in mol/kg
Details: 99 kPa, Liquid, Alternating current cell with electrodes

CCCCCCCCCCCC[N+](C)(C)C.[Br-] [dodecyltrimethylammonium bromide] + O
electrical conductivity [S/m]
Details	288.15 K	293.15 K	298.15 K	303.15 K
m1 = 0.0015	0.0137 ± 0.006	0.014 ± 0.0061	0.0143 ± 0.0061	0.0144 ± 0.0062
m1 = 0.003	0.0265 ± 0.0059	0.027 ± 0.006	0.0273 ± 0.0062	0.0278 ± 0.0062
m1 = 0.0045	0.039 ± 0.0057	0.0397 ± 0.006	0.0412 ± 0.0061	0.0413 ± 0.0063
m1 = 0.0059	0.05 ± 0.0056	0.052 ± 0.0059	0.053 ± 0.0061	0.0545 ± 0.0063
m1 = 0.0073	0.061 ± 0.0057	0.0635 ± 0.0057	0.0659 ± 0.0059	0.067 ± 0.006
m1 = 0.0087	0.0725 ± 0.0057	0.0748 ± 0.0057	0.0769 ± 0.0058	0.079 ± 0.0057
m1 = 0.0101	0.0837 ± 0.0055	0.086 ± 0.0056	0.089 ± 0.0057	0.0895 ± 0.0055
m1 = 0.0116	0.095 ± 0.0055	0.0975 ± 0.0055	0.1 ± 0.0053	0.101 ± 0.0056
m1 = 0.013	0.106 ± 0.0052	0.108 ± 0.0054	0.11 ± 0.0052	0.112 ± 0.0055
m1 = 0.0144	0.115 ± 0.005	0.118 ± 0.0049	0.12 ± 0.005	0.122 ± 0.0048
m1 = 0.0157	0.124 ± 0.0044	0.126 ± 0.0041	0.128 ± 0.004	–
m1 = 0.017	0.129 ± 0.0035	0.131 ± 0.0034	0.132 ± 0.0033	–
m1 = 0.0184	0.132 ± 0.0033	0.133 ± 0.0032	0.134 ± 0.0032	–
m1 = 0.0197	0.135 ± 0.0032	0.136 ± 0.0032	0.136 ± 0.0032	–
m1 = 0.021	0.137 ± 0.0031	0.138 ± 0.0032	0.139 ± 0.0033	–
m1 = 0.0223	0.139 ± 0.0031	0.14 ± 0.0031	0.142 ± 0.0032	–
m1 = 0.0236	0.141 ± 0.0031	0.142 ± 0.0032	0.143 ± 0.0031	–
m1 = 0.0249	0.143 ± 0.0031	0.144 ± 0.0032	0.146 ± 0.0032	–
m1 = 0.0274	0.146 ± 0.0031	0.149 ± 0.0032	0.15 ± 0.0033	–
m1 = 0.0286	0.148 ± 0.0032	0.151 ± 0.0033	0.153 ± 0.0033	–
m1 = 0.0298	0.15 ± 0.0032	0.154 ± 0.0032	0.156 ± 0.0034	–

Source: the NIST ThermoML archive (doi:10.1016/j.jct.2014.07.003)
